Consider four molecules from article PMC9401600 (Chemmedchem, 2022).

For one test, the target named is T1, G9a (Homo sapiens, UniProt Q96KQ7).
T1 construct: purchased BPS Bioscience 52051
T1 sequence (Q96KQ7 1-1210): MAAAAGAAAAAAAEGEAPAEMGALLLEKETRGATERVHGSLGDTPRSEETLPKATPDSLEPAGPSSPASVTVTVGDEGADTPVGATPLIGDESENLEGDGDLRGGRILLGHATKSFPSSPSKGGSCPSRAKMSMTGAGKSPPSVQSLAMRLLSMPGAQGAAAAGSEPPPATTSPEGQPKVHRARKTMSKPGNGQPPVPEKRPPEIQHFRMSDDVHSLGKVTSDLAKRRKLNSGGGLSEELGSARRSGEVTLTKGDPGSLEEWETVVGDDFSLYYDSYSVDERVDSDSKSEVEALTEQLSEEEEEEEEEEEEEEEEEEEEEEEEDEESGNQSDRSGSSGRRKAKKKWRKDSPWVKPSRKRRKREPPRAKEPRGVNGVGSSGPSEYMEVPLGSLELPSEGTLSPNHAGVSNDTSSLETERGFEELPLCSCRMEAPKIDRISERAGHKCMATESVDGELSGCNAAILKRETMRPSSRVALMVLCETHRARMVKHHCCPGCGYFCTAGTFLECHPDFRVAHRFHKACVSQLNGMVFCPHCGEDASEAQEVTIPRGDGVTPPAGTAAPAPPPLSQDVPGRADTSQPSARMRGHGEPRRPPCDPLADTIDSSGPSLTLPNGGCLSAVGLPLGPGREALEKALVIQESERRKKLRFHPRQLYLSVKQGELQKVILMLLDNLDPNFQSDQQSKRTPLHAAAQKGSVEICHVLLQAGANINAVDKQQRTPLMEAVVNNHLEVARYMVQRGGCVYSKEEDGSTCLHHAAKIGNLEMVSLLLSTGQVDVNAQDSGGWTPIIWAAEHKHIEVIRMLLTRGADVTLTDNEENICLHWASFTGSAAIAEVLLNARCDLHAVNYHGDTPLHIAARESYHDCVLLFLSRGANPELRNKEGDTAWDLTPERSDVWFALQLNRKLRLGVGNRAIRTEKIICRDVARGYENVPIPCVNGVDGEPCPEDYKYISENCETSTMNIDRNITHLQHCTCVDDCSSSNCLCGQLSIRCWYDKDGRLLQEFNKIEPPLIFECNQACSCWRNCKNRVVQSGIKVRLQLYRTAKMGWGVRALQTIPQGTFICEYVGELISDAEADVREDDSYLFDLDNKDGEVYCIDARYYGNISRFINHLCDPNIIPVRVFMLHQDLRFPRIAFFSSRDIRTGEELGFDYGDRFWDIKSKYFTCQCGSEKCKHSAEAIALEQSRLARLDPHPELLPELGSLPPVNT
Briefly: G9a Homogeneous Assay Kit (AlphaLISA) G9a inhibition. It is filed as biochemical. As to conditions: for IC50: AlphaLISA, 100 μM SAM and peptide substrate. (In general: Bead proximity is the source of the signal in Alpha formats.)

In another test the test system is C. elegans strain CL2006. Briefly: Locomotion assay (motor index). The test is classed as in vivo, Caenorhabditis elegans. As to conditions: CL2006 worms, 0.001-1 μM, chronic treatment, compared with UNC0638. As for the experimental part: One of the best‐characterized transgenic AD strains in C. elegans is the CL2006 strain, which contains the Punc‐54::Aβ1–42 transgene, showing a progressive adult‐onset paralysis. Then, to establish a dose‐response profile, the pharmacological impact of G9a inhibition was evaluated in a locomotion assay with this C. elegans strain. We performed a motility assay where animals were placed in the center of a seeded plate and allowed to explore the environment freely. […] N2 (WT), and CL2006 strain were treated with dimethyl sulfoxide (DMSO) 1 %, used as a vehicle, which should not cause a relevant locomotor defective phenotype. […] The motor index for each condition was calculated using the motor performance of Bristol (N2) (WT, 100 %) and the transgenic AD strain (CL2006, 0 %) animals as reference.
Locomotion assay of G9a inhibitors was assessed to obtain dose‐response profile, evaluating the impact of the pharmacology treatment in motor dysfunction presented by the transgenic strains CL2006. Nematodes were synchronized by alkaline hypochlorite treatment, and drug assay was performed as described above, except for the OP50 bacteria OD595 adjusted to 0.9, and the duration of the treatment was 5 days. N2 (WT), and the transgenic strain CL2006 were treated in liquid media for 4 days at 20 °C and 180 rpm, starting at the L1 stage. On day 5 of age, worms were transferred from the 96‐well plates onto an unseeded NGM plate for 45 minutes before starting the trial, allowing the plates to dry and worms. Locomotion assays were performed in 30 mm NGM plates, in which the whole surface of the plate was covered by OP50. 5 to 10 adult nematodes were placed in the center of a circle (with 1 cm of diameter) in the seeded 30 mm NGM plates. After 1 min, the number of animals remaining inside the circle was scored as a locomotor defect. Motor behavior assays were run in triplicates (n=3), with a total of at least 100 animals tested per compound concentration. Motor index establishes a score where treated animals showing the same motor defect as CL2006 have an index of 0 %. […] All the results shown in the figures are calculated using the following formula: Motorindex(%)=(LDCL2006vehicle-LDCL2006drug)/(LDCL2006vehicle-LDWTvehicle)×100 LD=locomotiondefective

One may read the remaining activity as the activity still measured, relative to the control. Read a low remaining activity as a large loss of activity. In general, IC50 refers to the concentration that inhibits the measured activity by half.

Method for G9a: The percentages of G9a activity for the 10 selected molecules were determined at 100 μM S‐adenosylmethionine (SAM) and peptide substrate using AlphaLISA® technology. These percentages were used to calculate the IC50.
G9a inhibitors were serially diluted between 5 nM and 0.001 nM in 100 % DMSO (Sigma, St. Louis, USA). Then, respective concentrations were subsequently diluted in MilliQ purified water to reach a final concentration ranging between 50 and 0.001 μM in 1 % DMSO in well.
Briefly, a sample containing the G9a enzyme is incubated with the biotinylated substrate plus inhibitor solution for two hours. Next, acceptor beads and primary antibody is added, followed by donor beads. Finally, the Alpha‐counts were read using an AlphaScreen microplate reader. The experiment was run per triplicate. G9aactivity(%)=(C-Cb)/(Ct-Cb)x100
Ct=The chemiluminescence reading in the absence of the compound. The data set here is defined as 100 % activity in the absence of the compound.
Cb=The chemiluminescence reading in absence of enzyme. The data set here is defined as 0 % activity in the absence of the enzyme.
C=The chemiluminescence reading in the presence of the compound.
Data analysis was conducted using GraphPad Prism ver. 9 statistical software. The statistical outliers were identified with Grubb's test and excluded from the analysis. Group comparisons were carried out with a One‐way Analysis of variance (ANOVA), followed by the Dunnett post hoc test. In some cases, comparison between groups was also performed by unpaired t‐test or One‐way ANOVA, followed by Fisher's LSD post hoc test. For the calculation of IC50, non‐linear regressions were performed. […] Values are shown as the mean ± Standard error of the mean (SEM) of at least n=3. Statistical significance was considered when p values were <0.05.

At G9a (first data set of Table S2), `CC(C)c1nccn1C(C)C(=O)Nc1ccc(NC(=O)CN2CCCCC2)cc1` (centres unmarked) [I] had a remaining activity at 0.0001 µM of 30.9%, a remaining activity at 0.001 µM of 24%, a remaining activity at 0.01 µM of 13.5% and a remaining activity at 0.1 µM of 8.2%. In addition, at G9a (first data set of Table S2), the remaining activity at 1 µM amounted to 6.8%, the remaining activity at 10 µM came out at 6.6% and the remaining activity at 50 µM was 5.9%. At G9a (second data set of Table S2), this molecule yielded a remaining activity at 0.0001 µM of 29.3%, a remaining activity at 0.001 µM of 22.5%, a remaining activity at 0.01 µM of 12.8% and a remaining activity at 0.1 µM of 9.3%. On G9a (second data set of Table S2), this molecule came in with a remaining activity at 1 µM of 7.3%, a remaining activity at 10 µM of 5.7% and a remaining activity at 50 µM of 4.8%. On G9a (third data set of Table S2), this molecule yielded a remaining activity at 0.0001 µM of 30.1%, a remaining activity at 0.001 µM of 23.2%, a remaining activity at 0.01 µM of 13.2% and a remaining activity at 0.1 µM of 8.7%. On G9a (third data set of Table S2), this molecule registered a remaining activity at 1 µM of 7.1%, a remaining activity at 10 µM of 6.2% and a remaining activity at 50 µM of 5.3%. For the same molecule, the half-inhibitory concentration (IC50) at G9a worked out at 3.9 nM. The “motor index dose‐response profile (in words)” value in the test with C. elegans strain CL2006 was “lowest motor index in the maximum and minimum dose tested”.
Take `c1ccc(OCCn2ccnc2)c(CN2CCN(c3ccncc3)CC2)c1` [Compound B]: on G9a (first data set of Table S2), the remaining activity at 0.0001 µM came out at 9.3%, the remaining activity at 0.001 µM turned out to be 8.7%, the remaining activity at 0.01 µM was determined as 3.5% and the remaining activity at 0.1 µM is 2.1%. Further, on G9a (first data set of Table S2), the remaining activity at 1 µM stood at 1.2%, the remaining activity at 10 µM was found to be 0.9% and the remaining activity at 50 µM is 0.2%. Besides, at G9a (second data set of Table S2), the remaining activity at 0.0001 µM is 10.8%, the remaining activity at 0.001 µM is 11.6%, the remaining activity at 0.01 µM was determined as 7.3% and the remaining activity at 0.1 µM was found to be 5.3%. At G9a (second data set of Table S2), this molecule registered a remaining activity at 1 µM of 3.8%, a remaining activity at 10 µM of 1.6% and a remaining activity at 50 µM of 0.6%. Besides, on G9a (third data set of Table S2), the remaining activity at 0.0001 µM turned out to be 10%, the remaining activity at 0.001 µM was found to be 10.1%, the remaining activity at 0.01 µM is 5.4% and the remaining activity at 0.1 µM came to 3.7%. On G9a (third data set of Table S2), this molecule showed a remaining activity at 1 µM of 2.5%, a remaining activity at 10 µM of 1.2% and a remaining activity at 50 µM of 0.4%. In addition, the IC50 against G9a is 9.4 nM. For the same molecule, the “motor index dose‐response profile (in words)” value in the test on C. elegans strain CL2006 is listed as “did not show an improved performance against the motor indexes of the control UNC0638”.
With `CC(C)c1nccn1CCCNCc1cc(CN2CCCC2)cs1` [C], on G9a (first data set of Table S2), the remaining activity at 0.0001 µM is 32.8%, the remaining activity at 0.001 µM is 22.2%, the remaining activity at 0.01 µM was determined as 15.1% and the remaining activity at 0.1 µM came out at 12%. For the same molecule, at G9a (first data set of Table S2), the remaining activity at 1 µM amounted to 11.5%, the remaining activity at 10 µM was determined as 10.9% and the remaining activity at 50 µM turned out to be 10.7%. On G9a (second data set of Table S2), the remaining activity at 0.0001 µM was 32.7%, the remaining activity at 0.001 µM worked out at 23.9%, the remaining activity at 0.01 µM stood at 19.5% and the remaining activity at 0.1 µM was 12.6%. Besides, on G9a (second data set of Table S2), the remaining activity at 1 µM was determined as 12.4%, the remaining activity at 10 µM was 11.3% and the remaining activity at 50 µM was determined as 10.9%. Also, on G9a (third data set of Table S2), the remaining activity at 0.0001 µM came out at 32.8%, the remaining activity at 0.001 µM worked out at 23.1%, the remaining activity at 0.01 µM was found to be 17.3% and the remaining activity at 0.1 µM is 12.3%. Besides, on G9a (third data set of Table S2), the remaining activity at 1 µM turned out to be 12%, the remaining activity at 10 µM stood at 11.1% and the remaining activity at 50 µM stood at 10.8%. The same molecule came in with a half-inhibitory concentration (IC50) at G9a of 1.7 nM. Further, the “motor index dose‐response profile (in words)” value in the test with C. elegans strain CL2006 is “ameliorating the paralysis presented by CL2006”.
On G9a (first data set of Table S2), `CCc1nccn1CCC(=O)Nc1cccc(NC(=O)CN(C)C)c1` [G] yielded a remaining activity at 0.0001 µM of 29.6%, a remaining activity at 0.001 µM of 26%, a remaining activity at 0.01 µM of 17.6% and a remaining activity at 0.1 µM of 11.4%. Further, on G9a (first data set of Table S2), the remaining activity at 1 µM was found to be 8.7%, the remaining activity at 10 µM was 8.5% and the remaining activity at 50 µM was found to be 7.7%. Further, on G9a (second data set of Table S2), the remaining activity at 0.0001 µM was 33.7%, the remaining activity at 0.001 µM is 28.7%, the remaining activity at 0.01 µM turned out to be 16.1% and the remaining activity at 0.1 µM stood at 12.3%. Moreover, on G9a (second data set of Table S2), the remaining activity at 1 µM came out at 10.3%, the remaining activity at 10 µM turned out to be 9.1% and the remaining activity at 50 µM came out at 9.1%. On G9a (third data set of Table S2), this molecule registered a remaining activity at 0.0001 µM of 31.7%, a remaining activity at 0.001 µM of 27.4%, a remaining activity at 0.01 µM of 16.8% and a remaining activity at 0.1 µM of 11.9%. On G9a (third data set of Table S2), the remaining activity at 1 µM came to 9.5%, the remaining activity at 10 µM was 8.8% and the remaining activity at 50 µM is 8.4%. Also, the IC50 against G9a came to 5.8 nM. Further, the “motor index dose‐response profile (in words)” value in the test with C. elegans strain CL2006 is on record as “motor index decreased progressively as the dose decreased”.
